Molecules are shown by their SMILES. pKi: −log10 of the molar value. Where a name gives a salt, the structure may show the parent alone. Some results are limits rather than exact numbers.

One assay concerns the target T1, dopamine transporter (Rattus norvegicus, UniProt P23977).
T1 construct: tissue Pel-Freez, Rogers, AR; host or cells: rat striatum membranes
The assay is described as follows: [125I]RTI-55 displacement at dopamine transport sites, rat striatum membranes. The assay is classed as binding. Particulars: DA (IC50, nM), displacement of 10 pM [125I]RTI-55, rat striatum. The method, then: (§1) For this Example, binding of at biogenic amine transporters was determined using striatum and frontal cortex dissected from frozen Sprague-Dawley rat brains (Pel-Freez, Rogers, AR). Affinities of analogs at dopamine transport sites were determined by displacement of [^125I]RTI-55 binding in membranes from rat striatum, using 0.5 mg (original wet weight) of membranes and 10 pM [^125]RTI-55. Non-specific binding was determined in the presence of 1 μM WF-23 (analog 3a). Affinities of analogs at 5-HT transport sites were determined by displacement of [^3H] paroxetine binding in membranes from rat frontal cortex, using 50 mg (original wet weight) of membranes and 0.4 nM [^3H]paroxetine. Non-specific binding was determined in the presence of 10 μM fluoxetine. Binding of analogs at norepinephrine transport sites was determined by displacement of [^3H]nisoxetine binding in membranes from rat forebrain, using 0.7 nM [^3H]nisoxetine. Non-specific binding was determined in the presence of 1 μM desipramine.
(§2) Potencies were calculated from displacement curves using 7-10 concentrations of unlabeled analogs, as analyzed by non-linear curve fitting. Because binding of tropanes at dopamine transporters is generally regarded as multiphasic,^3 potencies in inhibiting [^125I]RTI-55 binding are reported as IC50 values. For [^3H]paroxetine and [^3H]nisoxetine binding assays, Ki values were calculated using the Cheng-Prusoff equation. All data are mean values±S.E.M. of at least three separate experiments, each of which was conducted in triplicate.
(§3) The binding affinities to dopamine (DA), serotonin (5-HT), and norepinephrine (NE) transporters for the series of compounds (4) are presented in Table 1.

The next assay addresses T2, 5-HT transporter (Rattus norvegicus, UniProt P31652).
T2 construct: tissue Pel-Freez, Rogers, AR; host or cells: rat frontal cortex membranes
The assay is described as follows: [3H]paroxetine displacement at 5-HT transport sites, rat frontal cortex membranes. Format: binding. The method, then: as §1, §2, §3

Assay [1] addresses T3, norepinephrine transporter (Rattus norvegicus, UniProt Q9WTR4).
T3 construct: tissue Pel-Freez, Rogers, AR; host or cells: rat forebrain membranes
The assay is described as follows: [3H]nisoxetine displacement at norepinephrine transport sites, rat forebrain membranes. The assay is classed as binding. Conditions: NE (Ki, nM), displacement of 0.7 nM [3H]nisoxetine. The method, then: as §1, §2, §3

The test system of a further assay is ckr mouse. The assay is described as follows: Hyperactivity and circling in ckr mice (model validation). Format: in vivo. Particulars: rate of hyperactivity and circling after administration, concentrations relevant to human clinical use. The method, then:
The mouse also presents lateral ventricular enlargement, which may mirror neuropathological observations in shizophrenia. […] We have further validated this model by testing risperidone, clozapine, haloperidol and pimozide in the ckr mouse. The behavioral output was assayed by measuring the rate of hyperactivity and circling after administration.

T3 sequence (Q9WTR4 1-597): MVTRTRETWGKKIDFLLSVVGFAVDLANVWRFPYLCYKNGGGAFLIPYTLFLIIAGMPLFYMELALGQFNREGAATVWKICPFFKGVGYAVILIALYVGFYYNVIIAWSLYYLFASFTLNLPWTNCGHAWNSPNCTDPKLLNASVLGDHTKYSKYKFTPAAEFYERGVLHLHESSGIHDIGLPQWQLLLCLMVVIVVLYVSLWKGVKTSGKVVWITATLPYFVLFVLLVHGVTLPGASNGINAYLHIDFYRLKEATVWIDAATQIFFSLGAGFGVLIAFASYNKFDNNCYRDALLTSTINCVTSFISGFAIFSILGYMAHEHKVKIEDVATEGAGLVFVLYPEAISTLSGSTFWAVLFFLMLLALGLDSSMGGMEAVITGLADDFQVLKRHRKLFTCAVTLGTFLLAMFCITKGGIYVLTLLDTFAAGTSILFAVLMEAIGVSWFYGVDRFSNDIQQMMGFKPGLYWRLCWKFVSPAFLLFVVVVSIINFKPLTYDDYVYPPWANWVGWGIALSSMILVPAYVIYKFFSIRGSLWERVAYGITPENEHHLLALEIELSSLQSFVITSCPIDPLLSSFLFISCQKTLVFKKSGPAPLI
T1 sequence (P23977 whole entry): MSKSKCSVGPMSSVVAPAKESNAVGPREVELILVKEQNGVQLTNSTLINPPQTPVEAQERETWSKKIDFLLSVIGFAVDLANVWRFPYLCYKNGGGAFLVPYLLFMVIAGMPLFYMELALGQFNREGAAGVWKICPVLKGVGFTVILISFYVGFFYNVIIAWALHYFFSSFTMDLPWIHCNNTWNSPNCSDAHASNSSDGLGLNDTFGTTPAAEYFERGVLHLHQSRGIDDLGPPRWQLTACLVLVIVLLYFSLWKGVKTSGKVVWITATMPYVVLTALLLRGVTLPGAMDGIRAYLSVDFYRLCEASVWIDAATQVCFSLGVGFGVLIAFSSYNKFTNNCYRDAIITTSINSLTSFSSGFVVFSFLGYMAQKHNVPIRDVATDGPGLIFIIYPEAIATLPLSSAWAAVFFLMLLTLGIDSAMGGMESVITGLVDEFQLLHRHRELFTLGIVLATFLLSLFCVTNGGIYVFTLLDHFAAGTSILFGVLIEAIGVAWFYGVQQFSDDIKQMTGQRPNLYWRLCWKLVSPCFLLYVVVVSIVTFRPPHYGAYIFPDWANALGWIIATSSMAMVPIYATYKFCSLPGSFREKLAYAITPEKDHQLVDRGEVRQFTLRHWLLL
T2 sequence (P31652 whole entry): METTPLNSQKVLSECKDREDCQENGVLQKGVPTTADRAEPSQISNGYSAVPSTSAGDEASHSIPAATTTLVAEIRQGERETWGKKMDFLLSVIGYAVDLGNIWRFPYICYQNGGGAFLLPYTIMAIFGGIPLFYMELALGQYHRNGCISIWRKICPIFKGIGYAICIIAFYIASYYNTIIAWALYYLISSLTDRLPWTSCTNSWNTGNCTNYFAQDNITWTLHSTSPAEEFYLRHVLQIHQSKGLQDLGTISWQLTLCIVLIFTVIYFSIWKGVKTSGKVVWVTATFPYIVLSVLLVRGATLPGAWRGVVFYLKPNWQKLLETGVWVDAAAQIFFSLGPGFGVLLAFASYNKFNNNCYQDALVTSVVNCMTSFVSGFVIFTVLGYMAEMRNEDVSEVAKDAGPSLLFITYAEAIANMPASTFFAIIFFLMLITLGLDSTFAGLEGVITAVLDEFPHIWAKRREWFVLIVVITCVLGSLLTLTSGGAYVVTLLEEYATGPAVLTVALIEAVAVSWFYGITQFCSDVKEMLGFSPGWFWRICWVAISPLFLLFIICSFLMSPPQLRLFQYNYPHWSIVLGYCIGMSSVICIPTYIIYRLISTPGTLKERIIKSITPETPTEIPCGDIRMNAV

On dopamine transporter, `COC(=O)C(c1ccc(Br)cc1)C1C=CCCN1` (racemic) [(±)-4b] yielded a half-inhibitory concentration (IC50) of 6020 nM. That is a single-digit micromolar value.
On 5-HT transporter, `COC(=O)C(c1ccc(Cl)cc1)C1C=CCCN1` (racemic) [(±)-4c] gave a pKi of under 5.00. Further, in assay [1], the inhibition constant Ki is 1910 nM. In addition, the IC50 at dopamine transporter stood at 6380 nM.
In the case of `COC(=O)C(c1ccc2ccccc2c1)C1C=CCCN1` (racemic) [(±)-4f], the pKi on 5-HT transporter was 5.92. In assay [1], this compound returned a Ki of 1190 nM. The compound further yielded an IC50 on dopamine transporter of 496 nM.
At dopamine transporter, `COC(=O)[C@H](c1ccc(Br)cc1)[C@@H]1C=CCCN1` [(2R,2′S)-4b] had an IC50 of 5590 nM.
`COC(=O)[C@H](c1ccc(Cl)cc1)[C@@H]1C=CCCN1` [(2R,2′S)-4c] had a pKi on 5-HT transporter of under 5.00. This compound registered a Ki in assay [1] of 3310 nM. This compound yielded an IC50 on dopamine transporter of 5030 nM.
With `COC(=O)C(c1ccc(Cl)c(Cl)c1)C1C=CCCN1` [(2R,2′S)-4d], the Ki in assay [1] came to 109 nM. This compound showed an IC50 on dopamine transporter of 216 nM.
Turning to `COC(=O)[C@H](c1ccc2ccccc2c1)[C@@H]1C=CCCN1` [(2R,2′S)-4f], the pKi at 5-HT transporter was 6.22. Affinity in assay [1] was put at a Ki of 323 nM. This compound displayed an IC50 at dopamine transporter of 547 nM.
Consider `COC(=O)[C@@H](c1ccc(Br)cc1)[C@H]1C=CCCN1` [(2S,2′R)-4b, (S)-Methyl 2-(4-bromophenyl)-2-((R)-1,2,5,6-tetrahydropyridin-2-yl)acetate hydrochloride], for which, on dopamine transporter, the IC50 stood at 5340 nM.
`COC(=O)[C@@H](c1ccc(Cl)cc1)[C@H]1C=CCCN1` [(2S,2′R)-4c] had a negative logarithm of the Ki (pKi) on 5-HT transporter of under 5.00. Besides, the Ki in assay [1] turned out to be 391 nM. On dopamine transporter, the IC50 turned out to be 5370 nM.
Compound `COC(=O)C(c1ccc(Cl)c(Cl)c1)C1C=CCCN1` [(2S,2′R)-4d] showed a pKi at 5-HT transporter of under 5.00. The same compound registered a Ki in assay [1] of 193 nM. The compound further showed an IC50 on dopamine transporter of 329 nM.
With `COC(=O)[C@@H](c1ccc2ccccc2c1)[C@H]1C=CCCN1` [(2S,2′R)-4f], the negative logarithm of the Ki (pKi) on 5-HT transporter is 5.71. This compound registered a Ki in assay [1] of 800 nM. The IC50 at dopamine transporter is 864 nM.
Consider `O=C(CCCN1CCC(O)(c2ccc(Cl)cc2)CC1)c1ccc(F)cc1` [haloperidol], for which the “hyperactivity in ckr mice” value in the assay with ckr mouse is given as “dose-dependent attenuation of hyperactivity”.
Turning to `Cc1nc2n(c(=O)c1CCN1CCC(c3noc4cc(F)ccc34)CC1)CCCC2` [risperidone], in the assay on ckr mouse, the “hyperactivity in ckr mice” value was “dose-dependent attenuation of hyperactivity”.

For the origin of these results see US7851487B2, “Use of tetrahydropyridines in the treatment of central nervous system disorders” (The Research Foundation of State University of New York, priority 2006, dated 2010).
